Read-outs that look alike come from different tables or passages of the source. Non-standard residues stand in square brackets, D forms with d. Residues, ends and D or L forms follow the SMILES beside them.
Key:
[1] = tested on: EpiAirway™ human-derived tracheal/bronchial epithelial cells; assay: Transepithelial electrical resistance (TER) across EpiAirway epithelial cell layer; assay type: cell-based; settings: for TER(x)/TER(159) +/− SEM: ratio to PN159; for Relative TER Decrease: relative to PN159 = 1.0; for TER reduction (highest within the concentration range tested): EpiAirway epithelial cells
[2] = tested on: EpiAirway™ human-derived tracheal/bronchial epithelial cells; assay: Cytotoxicity (LDH assay); assay type: cell-based
Experimental: The amount of cell death was assayed by measuring the loss of lactate dehydrogenase (LDH) from the cells using a CytoTox 96 Cytoxicity Assay Kit (Promega Corp., Madison, Wis.). Fifty microliters of sample was loaded into a 96-well assay plates. Fresh, cell-free culture medium was used as a blank. 50 μl of substrate solution was added to each well and the plates incubated for 30 minutes at room temperature in the dark. Following incubation, 50 μl of stop solution was added to each well and the plates read on an optical density plate reader at 490 nm.
The amount of cell death will be assayed by measuring the loss of lactate dehydrogenase (LDH) from the cells using a CytoTox 96 Cytotoxicity Assay Kit (Promega Corp., Madison, Wis.). Fifty microliters of sample will be loaded into a 96-well assay plates. Fresh, cell-free culture medium will be used as a blank. Fifty microliters of substrate solution will be added to each well and the plates incubated for 30 minutes at room temperature in the dark. Following incubation, 50 μl of stop solution will be added to each well and the plates read on an optical density plate reader at 490 nm. The measurement of LDH release into the basolateral media indicates relative cytotoxicity of the samples. One hundred percent lysis of control inserts with 0.3% Octylphenolpoly(ethyleneglycolether)×(TritonX-100) allows LDH values to be expressed as percentage of total lysis.
In some embodiments, The amount of cell death was assayed by measuring the release of lactate dehydrogenase (LDH) from the cells into the apical medium using a CytoTox 96 Cytotoxicity Assay Kit (Promega Corp., Madison, Wis.). One percent Octylphenolpoly (ethyleneglycolether)×(Triton X-100™) diluted in phosphate buffered saline (PBS) causes 100% lysis in cultured cells and served herein as a positive control for the LDH assay. Following the one hour incubation period with a test formulation (refer to Table 24 of Example 25 for details of test formulations), the total liquid volume of each insert was brought to a final volume of 200 μl with culture medium. The apical medium was then mixed by pipetting four times with a multichannel pipette set to a 100 μl volume. After mixing, a 100 μl sample from the apical side of each insert was transferred to a new 96-well plate. The apical media samples were sealed with a plate sealer and stored at room temperature for same day analysis or stored overnight at 4° C. for analysis the next day. To measure LDH levels, 5 μl of the 100 μl apical media sample was diluted in 45 μl DPBS in a new 96-well plate. Fresh, cell-free culture medium will be used as a blank. Fifty microliters of substrate solution was added to each well and incubated for 30 minutes at room temperature away from direct light. Following the 30 minute incubation, 50 μl of stop solution was added to each well. Optical density (OD) was measured at 490 nm with a uQuant absorbance plate reader from Biotek Instruments. The measurement of LDH release into the apical media indicates relative cytotoxicity of the samples. Percent cytotoxicity for each test formulation was calculated by subtracting the measured absorbance of the PBS control (basal level of LDH release) from the measured absorbance of the individual test formulation and then dividing that value by the measured absorbance for the 1% Triton X-100™ positive control, multiplied by 100.
An LDH assay was used to assess the cytotoxicity of the treatments. The LDH level was determined by CytoTox96 Non-Radioactive Cytotoxic Assay (Promega, Madison, Wis.) following the manufacturer's protocol. For basal-lateral LDH levels, triplicates of 50 ul of the basal medium were used to determine the LDH level. For apical LDH level, 150 ul of the diluted apical sample was removed by adding 150 ul of Epi-CM to the apical chamber, the medium was mixed by pipeting up and down, and 150 ul medium was removed and diluted 2× (for a final 8-fold dilution) for assay in triplicates of 50 ul.

[3] = 15 minute treatment at the peptide's optimal concentration
[4] = 60 minute treatment at the peptide's optimal concentration

Compound	TER(x)/TER(159) +/− SEM [1]	Relative TER Decrease [1]	also measured
H-KLALKLALKALKAALKLALK-NH2 [PN419]	1.23 +/− 0.01		
H-LKTLATALTKLAKTLTTL-NH2 [PN443]		0.3	
H-KLALKLALKALKAALKLALKLALK-NH2 [PN421]	0.74 +/− 0.11		
H-KLWSAWPSLWSSLWKP-NH2 [PN228]			LDH15 [2]: 0.0063; LDH60 [2]: 0.046; TER reduction ([1]; 100 μM peptide): 9%; TER reduction ([1]; 500 μM peptide): 82%
H-KALAALLKKAAKLLAALK-NH2 [PN442]	0.93 +/− 0.03		
Octylphenolpoly (ethyleneglycolether)×(Triton X-100™) [Triton X-100 ™, reference compound]			% Triton-X LDH Release ([2]; 1% Triton X-100, positive control): 100%
H-KLALKLALKALKAALK-NH2 [PN418]	1.05 +/− 0.05		
CC(C)C[C@H](NC(=O)[C@H](C)NC(=O)[C@H](CCCCN)NC(=O)[C@H](CC(C)C)NC(=O)[C@H](CC(N)=O)NC(=O)[C@H](CC(C)C)NC(=O)[C@H](CCCCN)NC(=O)[C@H](CC(C)C)NC(=O)[C@@H](CCCCN)NC(=O)[C@H](CC(C)C)NC(=O)[C@H](CCCCN)NC(=O)[C@H](CC(C)C)NC(=O)[C@H](C)NC(=O)[C@H](C)NC(=O)[C@H](CCCCN)NC(=O)[C@H](CC(C)C)NC(=O)[C@H](C)NC(=O)[C@H](CCCCN)NC(=O)[C@H](CC(C)C)NC(=O)[C@H](C)NC(=O)[C@H](CCCCN)NC(=O)[C@H](CC(C)C)NC(=O)[C@H](C)NC(=O)[C@H](CC(C)C)NC(=O)[C@@H](N)CCCCN)C(N)=O [PN422] (H-KLALKALKALKAALKL[dK]LKLNLKAL-NH2)	0.47 +/− 0.07		
H-LKLLKKLLKKLLKLL-NH2 [PN406]		0.9	
H-RLAWRLALRALRAALRLA-NH2 [PN395]		0.8	
H-AAVALLPAVLLALLAPRKKRRQRRRPPQ-NH2 [PN27]			LDH15 [2, 3]: 0.0056; LDH60 [2, 4]: 0.035; TER reduction ([1]; 125 μM peptide): 81%; TER reduction ([1]; 250 μM peptide): 91%; TER reduction ([1]; 500 μM peptide): 94%
H-KLAWKLAWKALKAAWKLA-NH2 [PN0428]		0.7	
H-KLALKLALKNLKAALKLA-NH2 [PN448]		0.4	
H-KETWWETWWTEWSQPGRKKRRQRRRRPPQ-NH2 [PN183]			TER reduction ([1]; 100 μM peptide): 25%; TER reduction ([1]; 500 μM peptide): 41%; TER reduction ([1]; 1000 μM peptide): 55%; TER reduction (highest within the concentration range tested) [1]: 55%
CC(C)C[C@H](NC(=O)[C@H](CC(C)C)NC(=O)[C@@H](CCCCN)NC(=O)[C@H](CC(C)C)NC(=O)[C@H](CC(C)C)NC(=O)[C@H](CCCCN)NC(=O)[C@@H](CCCCN)NC(=O)[C@@H](CC(C)C)NC(=O)[C@H](CC(C)C)NC(=O)[C@@H](CCCCN)NC(=O)[C@H](CCCCN)NC(=O)[C@H](CC(C)C)NC(=O)[C@@H](CC(C)C)NC(=O)[C@H](CCCCN)NC(=O)[C@@H](N)CC(C)C)C(N)=O [PN407, NH2-LKlLKkLlkKLLkLL-amide] (H-LK[dL]LK[dK]L[dL][dK]KLL[dK]LL-NH2)	1.08 +/− 0.01	1.1	
H-KALKLKAALALLAKLKLA-NH2 [PN424]	0.59 +/− 0.07		
H-KLAWKLALKALKAAWKLA-NH2 [PN0427]		1.0	
CC[C@H](C)[C@H](NC(=O)[C@H](CCCCN)NC(=O)[C@@H](NC(=O)[C@H](CCC(N)=O)NC(=O)[C@@H](N)CCCNC(=N)N)[C@@H](C)CC)C(=O)N[C@@H](Cc1c[nH]c2ccccc12)C(=O)N[C@@H](Cc1ccccc1)C(=O)N[C@@H](CCC(N)=O)C(=O)N[C@@H](CC(N)=O)C(=O)N[C@@H](CCCNC(=N)N)C(=O)N[C@@H](CCCNC(=N)N)C(=O)N[C@@H](CCSC)C(=O)N[C@@H](CCCCN)C(=O)N[C@@H](Cc1c[nH]c2ccccc12)C(=O)N[C@@H](CCCCN)C(=O)N[C@@H](CCCCN)C(N)=O [PN58]			LDH15 [2, 3]: 0.0007; LDH60 [2, 4]: 0.02; TER reduction ([1]; 250 μM peptide): −6%; TER reduction ([1]; 500 μM peptide): 64%; TER reduction ([1]; 1000 μM peptide): 88%
H-KLAAALLKKAKKLAAALL-NH2 [PN441]	0.54 +/− 0.04		
H-KLALKLALKALKAALKLALKLA-NH2 [PN420]	0.77 +/− 0.05		
CC(C)C[C@@H](NC(=O)[C@@H](C)N)C(=O)N[C@H](CCCCN)C(=O)N[C@H](CC(C)C)C(=O)N[C@H](C)C(=O)N[C@H](C)C(=O)N[C@H](CCCCN)C(=O)N[C@H](CC(C)C)C(=O)N[C@H](C)C(=O)N[C@H](CCCCN)C(=O)N[C@H](CC(C)C)C(=O)N[C@H](C)C(=O)N[C@H](CC(C)C)C(=O)N[C@H](CCCCN)C(=O)N[C@H](CC(C)C)C(=O)N[C@H](C)C(=O)N[C@H](CC(C)C)C(=O)N[C@H](CCCCN)C(N)=O [PN408, NH2-alklaaklaklalklalk-amide]	1.05 +/− 0.01		
H-KALAALLKKLAKLLAALK-NH2 [PN444]	0.82 +/− 0.05		
CC(C)C[C@@H](NC(=O)[C@H](N)CCCCN)C(=O)N[C@H](C)C(=O)N[C@H](CC(C)C)C(=O)N[C@H](CCCCN)C(=O)N[C@H](CC(C)C)C(=O)N[C@H](C)C(=O)N[C@H](CC(C)C)C(=O)N[C@H](CCCCN)C(=O)N[C@H](C)C(=O)N[C@H](CC(C)C)C(=O)N[C@H](CCCCN)C(=O)N[C@H](C)C(=O)N[C@H](C)C(=O)N[C@H](CC(C)C)C(=O)N[C@H](CCCCN)C(=O)N[C@H](CC(C)C)C(=O)N[C@H](C)C(N)=O [PN393, NH2-klalklalkalkaalkla-amide]	1.06 +/− 0.00		
H-KLAWKLALKALKAALKLA-NH2 [PN0425]		1.0	
H-RKKRRQRRRPPQCAAVALLPAVLLALLAP-NH2 [PN28]			TER reduction (highest within the concentration range tested) [1]: functionally equivalent to PN27

From US20090220435A1, “TIGHT JUNCTION MODULATING PEPTIDE COMPONENTS FOR ENHANCING MUCOSAL DELIVERY OF THERAPEUTIC AGENTS” (priority 2005, published 2009)
